# System: Magnaporthe grisea (Pyricularia oryzae—PYRIOR)
# Test: microbe, parasite or virus in culture
# Assay type: cell-based
# Conditions: Pyricularia oryzae, read-out: PYRIOR in vitro Growth Inhibition
row,SMILES,inhibition at 25 ppm
1,COc1ccnc(C(=O)Nc2ccc(Oc3cc(C(F)(F)F)ccn3)cc2)c1O [Compound 461],< 80%
2,COc1ccnc(C(=O)N[C@@H]2CCCC[C@H]2SC)c1O [Compound 273],< 80%
3,CCOC(=O)c1cc(Oc2ccc(C(F)(F)F)cc2)ccc1NC(=O)c1nccc(OC)c1O [Compound 427],< 80%
4,COc1ccnc(C(=O)N[C@H]2CO[C@](C)(C(C)CC3=C(C)CCCC3(C)C)OC2)c1O (stereo partly drawn) [Compound 319],< 80%

# System: Phytophthora infestans (PHYTIN)
# Test: microbe, parasite or virus in culture
# Assay type: cell-based
# Conditions: Phytophthora infestans, read-out: PHYTIN in vitro Growth Inhibition
row,SMILES,inhibition at 25 ppm
1,COc1ccnc(C(=O)Nc2ccc(Oc3cc(C(F)(F)F)ccn3)cc2)c1O [Compound 461],< 80%
2,COc1ccnc(C(=O)N[C@@H]2CCCC[C@H]2SC)c1O [Compound 273],< 80%
3,CCOC(=O)c1cc(Oc2ccc(C(F)(F)F)cc2)ccc1NC(=O)c1nccc(OC)c1O [Compound 427],< 80%
4,COc1ccnc(C(=O)N[C@H]2CO[C@](C)(C(C)CC3=C(C)CCCC3(C)C)OC2)c1O (stereo partly drawn) [Compound 319],< 80%

# System: Stagonospora nodorum (Leptosphaeria nodorum—LEPTNO)
# Test: In vitro fungal growth inhibition, Stagonospora nodorum (LEPTNO)
# Assay type: cell-based
# Conditions: Leptosphaeria; 25 ppm in growth medium; read-out: LEPTNO in vitro Growth Inhibition
row,SMILES,inhibition at 25 ppm
1,COc1ccnc(C(=O)N[C@@H]2CCCC[C@H]2SC)c1O [Compound 273],< 80%
2,CCOC(=O)c1cc(Oc2ccc(C(F)(F)F)cc2)ccc1NC(=O)c1nccc(OC)c1O [Compound 427],< 80%
3,COc1ccnc(C(=O)N[C@H]2CO[C@](C)(C(C)CC3=C(C)CCCC3(C)C)OC2)c1O (stereo partly drawn) [Compound 319],< 80%

# Same assay, conditions: Leptosphaeria; 25 ppm in the growth medium; read-out: LEPTNO in vitro Growth Inhibition
row,SMILES,inhibition at 25 ppm
1,COc1ccnc(C(=O)Nc2ccc(Oc3cc(C(F)(F)F)ccn3)cc2)c1O [Compound 461],< 80%

# System: Septoria tritici—SEPTTR
# Test: Leaf Blotch of Wheat, in vivo whole plant, 24 Hour Protectant
# Conditions: Zymoseptoria tritici, 24 h, 100 ppm spray, 24 hour protectant, wheat; control of fungal infection vs untreated plants; read-out: SEPTTR in vivo 1 Day Protectant
row,SMILES,pest or weed control at 100 ppm
1,COc1ccnc(C(=O)N[C@@H]2CCCC[C@H]2SC)c1O [Compound 273],25 to 74%
2,COc1ccnc(C(=O)N[C@H]2CO[C@](C)(C(C)CC3=C(C)CCCC3(C)C)OC2)c1O (stereo partly drawn) [Compound 319],25 to 74%

# Same assay, conditions: Zymoseptoria tritici, 24 h, 100 ppm spray, wheat, 24 hour protectant; control of fungal infection vs untreated plants; read-out: SEPTTR in vivo 1 Day Protectant
row,SMILES,pest or weed control at 100 ppm
1,CCOC(=O)c1cc(Oc2ccc(C(F)(F)F)cc2)ccc1NC(=O)c1nccc(OC)c1O [Compound 427],25 to 74%

# Same assay, conditions: Zymoseptoria tritici, 24 h, wheat plants sprayed at 100 ppm, inoculated after 24 hours; control of fungal infection vs untreated plants; read-out: SEPTTR in vivo 1 Day Protectant
row,SMILES,pest or weed control at 100 ppm
1,COc1ccnc(C(=O)Nc2ccc(Oc3cc(C(F)(F)F)ccn3)cc2)c1O [Compound 461],25 to 74%

# System: Leptosphaeria nodorum—LEPTNO
# Test: Glume Blotch of Wheat, in vivo whole plant, 24 Hour Protectant
# Conditions: Leptosphaeria; 100 ppm spray, 24 hour protectant, wheat; control of fungal infection vs untreated plants; read-out: LEPTNO in vivo 1 Day Protectant
row,SMILES,pest or weed control at 100 ppm
1,COc1ccnc(C(=O)N[C@@H]2CCCC[C@H]2SC)c1O [Compound 273],25 to 74%
2,COc1ccnc(C(=O)N[C@H]2CO[C@](C)(C(C)CC3=C(C)CCCC3(C)C)OC2)c1O (stereo partly drawn) [Compound 319],< 25%

# Same assay, conditions: Leptosphaeria; 100 ppm spray, wheat, 24 hour protectant; control of fungal infection vs untreated plants; read-out: LEPTNO in vivo 1 Day Protectant
row,SMILES,pest or weed control at 100 ppm
1,CCOC(=O)c1cc(Oc2ccc(C(F)(F)F)cc2)ccc1NC(=O)c1nccc(OC)c1O [Compound 427],25 to 74%

# Same assay, conditions: Leptosphaeria; wheat plants sprayed at 100 ppm, inoculated after 24 hours; control of fungal infection vs untreated plants; read-out: LEPTNO in vivo 1 Day Protectant
row,SMILES,pest or weed control at 100 ppm
1,COc1ccnc(C(=O)Nc2ccc(Oc3cc(C(F)(F)F)ccn3)cc2)c1O [Compound 461],25 to 74%

# System: Rhizoctonia solani (RHIZSO)
# Test: microbe, parasite or virus in culture
# Assay type: cell-based
# Conditions: Rhizoctonia solani, read-out: RHIZSO in vitro Growth Inhibition
row,SMILES,inhibition at 25 ppm
1,COc1ccnc(C(=O)Nc2ccc(Oc3cc(C(F)(F)F)ccn3)cc2)c1O [Compound 461],< 80%
2,COc1ccnc(C(=O)N[C@@H]2CCCC[C@H]2SC)c1O [Compound 273],< 80%
3,CCOC(=O)c1cc(Oc2ccc(C(F)(F)F)cc2)ccc1NC(=O)c1nccc(OC)c1O [Compound 427],< 80%
4,COc1ccnc(C(=O)N[C@H]2CO[C@](C)(C(C)CC3=C(C)CCCC3(C)C)OC2)c1O (stereo partly drawn) [Compound 319],< 80%

# System: not given
# Test: not given
# Conditions: not given
row,SMILES,melting point
1,COc1ccnc(C(=O)Nc2ccc(Oc3cc(C(F)(F)F)ccn3)cc2)c1O [Compound 461],169 to 171 °C
2,COc1ccnc(C(=O)N[C@@H]2CCCC[C@H]2SC)c1O [Compound 273],113 to 115 °C
3,CCOC(=O)c1cc(Oc2ccc(C(F)(F)F)cc2)ccc1NC(=O)c1nccc(OC)c1O [Compound 427],145 to 147 °C
4,COc1ccnc(C(=O)N[C@H]2CO[C@](C)(C(C)CC3=C(C)CCCC3(C)C)OC2)c1O (stereo partly drawn) [Compound 319],139 to 140 °C

# System: Ustilago maydis (USTIMA)
# Test: microbe, parasite or virus in culture
# Assay type: cell-based
# Conditions: Mycosarcoma maydis, read-out: USTIMA in vitro Growth Inhibition
row,SMILES,inhibition at 25 ppm
1,COc1ccnc(C(=O)Nc2ccc(Oc3cc(C(F)(F)F)ccn3)cc2)c1O [Compound 461],< 80%
2,COc1ccnc(C(=O)N[C@@H]2CCCC[C@H]2SC)c1O [Compound 273],< 80%
3,CCOC(=O)c1cc(Oc2ccc(C(F)(F)F)cc2)ccc1NC(=O)c1nccc(OC)c1O [Compound 427],< 80%
4,COc1ccnc(C(=O)N[C@H]2CO[C@](C)(C(C)CC3=C(C)CCCC3(C)C)OC2)c1O (stereo partly drawn) [Compound 319],< 80%

# System: Puccinia recondita—PUCCRT
# Test: Brown Rust of Wheat, in vivo whole plant, 24 Hour Protectant
# Conditions: 100 ppm spray, 24 hour protectant, wheat; control of fungal infection vs untreated plants
row,SMILES,PUCCRT in vivo 1 Day Protectant
1,COc1ccnc(C(=O)N[C@H]2CO[C@](C)(C(C)CC3=C(C)CCCC3(C)C)OC2)c1O (stereo partly drawn) [Compound 319],+ +

# Same assay, conditions: Puccinia; 100 ppm spray, 24 hour protectant, wheat; control of fungal infection vs untreated plants; read-out: PUCCRT in vivo 1 Day Protectant
row,SMILES,pest or weed control at 100 ppm
1,COc1ccnc(C(=O)N[C@@H]2CCCC[C@H]2SC)c1O [Compound 273],< 25%

# Same assay, conditions: Puccinia; 100 ppm spray, wheat, 24 hour protectant; control of fungal infection vs untreated plants; read-out: PUCCRT in vivo 1 Day Protectant
row,SMILES,pest or weed control at 100 ppm
1,CCOC(=O)c1cc(Oc2ccc(C(F)(F)F)cc2)ccc1NC(=O)c1nccc(OC)c1O [Compound 427],25 to 74%

# Same assay, conditions: Puccinia; wheat plants sprayed at 100 ppm, inoculated after 24 hours; control of fungal infection vs untreated plants; read-out: PUCCRT in vivo 1 Day Protectant
row,SMILES,pest or weed control at 100 ppm
1,COc1ccnc(C(=O)Nc2ccc(Oc3cc(C(F)(F)F)ccn3)cc2)c1O [Compound 461],25 to 74%

# System: Phytophthora infestans—PHYTIN
# Test: whole plant or invertebrate
# Assay type: in vivo
# Conditions: Phytophthora, in Solanum lycopersicum, 24 h, read-out: PHYTIN in vivo 1 Day Protectant
row,SMILES,pest or weed control at 100 ppm
1,COc1ccnc(C(=O)Nc2ccc(Oc3cc(C(F)(F)F)ccn3)cc2)c1O [Compound 461],< 25%
2,COc1ccnc(C(=O)N[C@@H]2CCCC[C@H]2SC)c1O [Compound 273],< 25%
3,CCOC(=O)c1cc(Oc2ccc(C(F)(F)F)cc2)ccc1NC(=O)c1nccc(OC)c1O [Compound 427],< 25%
4,COc1ccnc(C(=O)N[C@H]2CO[C@](C)(C(C)CC3=C(C)CCCC3(C)C)OC2)c1O (stereo partly drawn) [Compound 319],< 25%

# System: Erysiphe graminis—ERYSGT
# Test: Powdery Mildew of Wheat, in vivo whole plant, 24 Hour Protectant
# Conditions: Erysiphe; 100 ppm spray, 24 hour protectant, wheat; control of fungal infection vs untreated plants; read-out: ERYSGT in vivo 1 Day Protectant
row,SMILES,pest or weed control at 100 ppm
1,COc1ccnc(C(=O)N[C@@H]2CCCC[C@H]2SC)c1O [Compound 273],< 25%
2,COc1ccnc(C(=O)N[C@H]2CO[C@](C)(C(C)CC3=C(C)CCCC3(C)C)OC2)c1O (stereo partly drawn) [Compound 319],25 to 74%

# Same assay, conditions: Erysiphe; 100 ppm spray, wheat, 24 hour protectant; control of fungal infection vs untreated plants; read-out: ERYSGT in vivo 1 Day Protectant
row,SMILES,pest or weed control at 100 ppm
1,CCOC(=O)c1cc(Oc2ccc(C(F)(F)F)cc2)ccc1NC(=O)c1nccc(OC)c1O [Compound 427],< 25%

# Same assay, conditions: Erysiphe; wheat plants sprayed at 100 ppm, inoculated after 24 hours; control of fungal infection vs untreated plants; read-out: ERYSGT in vivo 1 Day Protectant
row,SMILES,pest or weed control at 100 ppm
1,COc1ccnc(C(=O)Nc2ccc(Oc3cc(C(F)(F)F)ccn3)cc2)c1O [Compound 461],< 25%

# System: Mycosphaerella graminicola (Septoria tritici—SEPTTR)
# Test: In vitro fungal growth inhibition, Mycosphaerella graminicola (SEPTTR)
# Assay type: cell-based
# Conditions: Zymoseptoria tritici; 25 ppm in growth medium; read-out: SEPTTR in vitro Growth Inhibition
row,SMILES,inhibition at 25 ppm
1,COc1ccnc(C(=O)N[C@@H]2CCCC[C@H]2SC)c1O [Compound 273],< 80%
2,CCOC(=O)c1cc(Oc2ccc(C(F)(F)F)cc2)ccc1NC(=O)c1nccc(OC)c1O [Compound 427],< 80%
3,COc1ccnc(C(=O)N[C@H]2CO[C@](C)(C(C)CC3=C(C)CCCC3(C)C)OC2)c1O (stereo partly drawn) [Compound 319],< 80%

# Same assay, conditions: Zymoseptoria tritici; 25 ppm in the growth medium; read-out: SEPTTR in vitro Growth Inhibition
row,SMILES,inhibition at 25 ppm
1,COc1ccnc(C(=O)Nc2ccc(Oc3cc(C(F)(F)F)ccn3)cc2)c1O [Compound 461],< 80%

# Source: patent publication US6706740B2, “Fungicidal heterocyclic aromatic amides and their compositions, methods of use and preparation” (Dow AgroSciences LLC, priority 1999, dated 2004)
